Test results from publication PMC11876601 (Molecular Systems Biology, 2025).
Read-outs that look alike come from different tables or passages of the source.

What was measured:
Assay in all cases: cells
PSN-1 [1] = tested on: PSN-1; design: ATPlite luminescence viability of PDAC cell lines, 11-dose single-agent curves, 4-parameter fit; conditions: Homo sapiens, PSN1, 72 h, read-out: EC50 [nM]
In short: (§1)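 cells (1000 to 5000 per well) seeded 24 h before drug addition in a combination screen at 0.2% final DMSO. Controls were drug-free wells (negative) and 5 µM staurosporine (positive).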

FAMPAC [2] = tested on: FAMPAC; design: ATPlite luminescence viability of PDAC cell lines, 11-dose single-agent curves, 4-parameter fit; conditions: 72 h, read-out: EC50 [nM]
In short: as §1

Colo-357 [3] = tested on: Colo-357; design: ATPlite luminescence viability of PDAC cell lines, 11-dose single-agent curves, 4-parameter fit; conditions: Homo sapiens, COLO357, 72 h, read-out: EC50 [nM]
In short: as §1

AsPC-1 [4] = tested on: AsPC-1; design: ATPlite luminescence viability of PDAC cell lines, 11-dose single-agent curves, 4-parameter fit; conditions: Homo sapiens, ASPC1, 72 h, read-out: EC50 [nM]
In short: as §1

Dan-G [5] = tested on: Dan-G; design: ATPlite luminescence viability of PDAC cell lines, 11-dose single-agent curves, 4-parameter fit; conditions: 72 h, read-out: EC50 [nM]
In short: as §1

PaTu-8988-T = tested on: PaTu-8988-T; design: ATPlite luminescence viability of PDAC cell lines, 11-dose single-agent curves, 4-parameter fit; conditions: Homo sapiens, PaTu 8988t, 72 h, read-out: EC50 [nM]
In short: as §1

MiaPaCa-2 [6] = tested on: MiaPaCa-2; design: ATPlite luminescence viability of PDAC cell lines, 11-dose single-agent curves, 4-parameter fit; conditions: Homo sapiens, MIA PaCa-2, 72 h, read-out: EC50 [nM]
In short: as §1

Capan-1 [7] = tested on: Capan-1; design: ATPlite luminescence viability of PDAC cell lines, 11-dose single-agent curves, 4-parameter fit; conditions: Homo sapiens, CAPAN-1, 72 h, read-out: EC50 [nM]
In short: as §1

HuP-T4 [8] = tested on: HuP-T4; design: ATPlite luminescence viability of PDAC cell lines, 11-dose single-agent curves, 4-parameter fit; conditions: Homo sapiens, HuP-T4, 72 h, read-out: EC50 [nM]
In short: as §1

Suit2-07 [9] = tested on: Suit2-07; design: ATPlite luminescence viability of PDAC cell lines, 11-dose single-agent curves, 4-parameter fit; conditions: 72 h, read-out: EC50 [nM]
In short: as §1

PANC-1 [10] = tested on: PANC-1; design: ATPlite luminescence viability of PDAC cell lines, 11-dose single-agent curves, 4-parameter fit; conditions: Homo sapiens, PANC-1, 72 h, read-out: EC50 [nM]
In short: as §1

HPDE [11] = tested on: HPDE; design: ATPlite luminescence viability of PDAC cell lines, 11-dose single-agent curves, 4-parameter fit; conditions: HPDE, 72 h, read-out: EC50 [nM]
In short: as §1

BxPC-3 = tested on: BxPC-3; design: ATPlite luminescence viability of PDAC cell lines, 11-dose single-agent curves, 4-parameter fit; conditions: Homo sapiens, BXPC-3, 72 h, read-out: EC50 [nM]
In short: as §1

Capan-1 [12] = tested on: Capan-1; design: Viability of PDAC cell lines, ATPlite luminescence, 11-dose single-agent curve fit; conditions: Homo sapiens, CAPAN-1, 72 h, read-out: EC50 [nM]
In short: (§2)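 cells (1000 to 5000 per well) seeded 24 h before drug addition in a screen at 0.2% final DMSO. Controls were drug-free wells (negative) and 5 µM staurosporine (positive).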

PSN-1 [13] = tested on: PSN-1; design: Viability of PDAC cell lines, ATPlite luminescence, 11-dose single-agent curve fit; conditions: Homo sapiens, PSN1, 72 h, read-out: EC50 [nM]
In short: as §2

FAMPAC [14] = tested on: FAMPAC; design: Viability of PDAC cell lines, ATPlite luminescence, 11-dose single-agent curve fit; conditions: 72 h, read-out: EC50 [nM]
In short: as §2

HuP-T4 [15] = tested on: HuP-T4; design: Viability of PDAC cell lines, ATPlite luminescence, 11-dose single-agent curve fit; conditions: Homo sapiens, HuP-T4, 72 h, read-out: EC50 [nM]
In short: as §2

Colo-357 [16] = tested on: Colo-357; design: Viability of PDAC cell lines, ATPlite luminescence, 11-dose single-agent curve fit; conditions: Homo sapiens, COLO357, 72 h, read-out: EC50 [nM]
In short: as §2

AsPC-1 [17] = tested on: AsPC-1; design: Viability of PDAC cell lines, ATPlite luminescence, 11-dose single-agent curve fit; conditions: Homo sapiens, ASPC1, 72 h, read-out: EC50 [nM]
In short: as §2

Dan-G [18] = tested on: Dan-G; design: Viability of PDAC cell lines, ATPlite luminescence, 11-dose single-agent curve fit; conditions: 72 h, read-out: EC50 [nM]
In short: as §2

MiaPaCa-2 [19] = tested on: MiaPaCa-2; design: Viability of PDAC cell lines, ATPlite luminescence, 11-dose single-agent curve fit; conditions: Homo sapiens, MIA PaCa-2, 72 h, read-out: EC50 [nM]
In short: as §2

Suit2-07 [20] = tested on: Suit2-07; design: Viability of PDAC cell lines, ATPlite luminescence, 11-dose single-agent curve fit; conditions: 72 h, read-out: EC50 [nM]
In short: as §2

PANC-1 [21] = tested on: PANC-1; design: Viability of PDAC cell lines, ATPlite luminescence, 11-dose single-agent curve fit; conditions: Homo sapiens, PANC-1, 72 h, read-out: EC50 [nM]
In short: as §2

HPDE [22] = tested on: HPDE; design: Viability of PDAC cell lines, ATPlite luminescence, 11-dose single-agent curve fit; conditions: HPDE, 72 h, read-out: EC50 [nM]
In short: as §2

Row | Compound | EC50 (Colo-357 [3]) | EC50 (AsPC-1 [4]) | EC50 (MiaPaCa-2 [6]) | EC50 (PANC-1 [10]) | EC50 (BxPC-3) | EC50 (PSN-1 [1]) | EC50 (FAMPAC [2]) | EC50 (Dan-G [5]) | EC50 (PaTu-8988-T) | EC50 (Capan-1 [7]) | EC50 (HuP-T4 [8]) | EC50 (Suit2-07 [9]) | EC50 (HPDE [11]) | further results
1 | Cc1ccc(C(=O)Nc2ccc(CN3CCN(C)CC3)c(C(F)(F)F)c2)cc1C#Cc1cnc2cccnn12 [Ponatinib] | 9250 nM | 1160 nM | 335 nM | > 10000 nM | 739 nM | 620 nM | 830 nM | 1200 nM | 357 nM | > 10000 nM | > 10000 nM | 618 nM | 1930 nM | –
2 | CC1(COc2ccc3c(c2)ncn3-c2ccc3cccc(N4CCC(N)CC4)c3n2)COC1 [Crenolanib] | 5080 nM | > 10000 nM | 2190 nM | 8300 nM | 3600 nM | 5250 nM | 3340 nM | 5940 nM | 5450 nM | – | > 10000 nM | 4860 nM | 3500 nM | EC50 (Capan-1 [12]): 3710 nM
3 | CN(C)C[C@@H]1CCn2cc(c3ccccc32)C2=C(C(=O)NC2=O)c2cn(c3ccccc23)CCO1 [Ruboxistaurin] | – | – | – | – | > 10000 nM | > 10000 nM | > 10000 nM | – | > 10000 nM | – | > 10000 nM | – | > 10000 nM | EC50 (Colo-357 [16]): 5.38 nM; EC50 (AsPC-1 [17]): 8110 nM; EC50 (Dan-G [18]): 5180 nM; EC50 (MiaPaCa-2 [19]): 6440 nM; EC50 (Capan-1 [12]): 8680 nM; EC50 (Suit2-07 [20]): 3050 nM; EC50 (PANC-1 [21]): 1620 nM
4 | Cc1ccc(NC(=O)c2ccc(CN3CCN(C)CC3)cc2)cc1Nc1nc(-c2cccnc2)cs1 [Masitinib] | 6650 nM | > 10000 nM | 3770 nM | 3250 nM | 3050 nM | 4380 nM | > 10000 nM | 3880 nM | 4770 nM | 3950 nM | > 10000 nM | > 10000 nM | 5500 nM | –
5 | CO[C@@H]1[C@H](N(C)C(=O)c2ccccc2)C[C@H]2O[C@]1(C)n1c3ccccc3c3c4c(c5c6ccccc6n2c5c31)C(=O)NC4 [Midostaurin] | – | – | – | – | – | – | – | – | 385 nM | – | 692 nM | – | – | EC50 (HPDE [22]): 221 nM
6 | CC(C)NC(=O)[C@H]1CC[C@@H](n2/c(=N/C(=O)c3ccc(F)cc3)[nH]c3ccc(CN4CCC(C(C)(C)O)CC4)cc32)CC1 [Belizatinib] | 7390 nM | 496 nM | 308 nM | 1860 nM | 1420 nM | 1340 nM | – | 4630 nM | 580 nM | – | > 10000 nM | 599 nM | 1270 nM | EC50 (FAMPAC [14]): 3220 nM; EC50 (Capan-1 [12]): 8120 nM
7 | COc1cc2c(Oc3ccc4[nH]c(C)cc4c3F)ncnc2cc1OCCCN1CCCC1 [Cediranib] | 10300 nM | 7780 nM | 10100 nM | – | 7970 nM | > 10000 nM | > 10000 nM | 6330 nM | 6380 nM | – | 8450 nM | > 10000 nM | – | EC50 (Capan-1 [12]): 8290 nM; EC50 (PANC-1 [21]): 7310 nM; EC50 (HPDE [22]): 4910 nM

Second part, led by results:

Row | EC50 (Colo-357 [3]) | EC50 (AsPC-1 [4]) | EC50 (MiaPaCa-2 [6]) | EC50 (PANC-1 [10]) | EC50 (BxPC-3) | Compound | EC50 (PSN-1 [1]) | EC50 (FAMPAC [2]) | EC50 (Dan-G [5]) | EC50 (PaTu-8988-T) | EC50 (Capan-1 [7]) | EC50 (HuP-T4 [8]) | EC50 (Suit2-07 [9]) | EC50 (HPDE [11]) | further results
8 | 1610 nM | 529 nM | 475 nM | 1780 nM | 1190 nM | C1=N/C2=N/c3ccc(OCCN4CCCC4)c(c3)COC/C=C/COCc3cccc(c3)C(=C1)N2 [Pacritinib] | 971 nM | 1280 nM | 2100 nM | 477 nM | 2210 nM | 2500 nM | 654 nM | 1340 nM | –
9 | 27.1 nM | 873 nM | 446 nM | 1570 nM | 245 nM | Cc1nc(-c2cn3c(n2)-c2ccc(-c4cnn(C(C)(C)C(N)=O)c4)cc2OCC3)n(C(C)C)n1 [Taselisib] | – | – | 37.1 nM | 459 nM | 2920 nM | – | 141 nM | 826 nM | EC50 (PSN-1 [13]): 7930 nM; EC50 (FAMPAC [14]): > 10000 nM; EC50 (HuP-T4 [15]): 19.8 nM
10 | 2350 nM | 3160 nM | 1720 nM | 1960 nM | 1520 nM | COc1cc2c(Oc3ccc4[nH]c(C)cc4c3F)ccnc2cc1OCC1(N)CC1 [Anlotinib] | 1920 nM | 1580 nM | 1850 nM | 1520 nM | 2440 nM | – | 1270 nM | 6100 nM | EC50 (HuP-T4 [15]): > 10000 nM
11 | 1410 nM | – | 946 nM | – | 4790 nM | COc1cc(Nc2ncc(F)c(Nc3ccc4c(n3)N(COP(=O)(O)O)C(=O)C(C)(C)O4)n2)cc(OC)c1OC [Fostamatinib] | 2020 nM | > 10000 nM | 1010 nM | 1190 nM | 2290 nM | 3770 nM | 1360 nM | > 10000 nM | EC50 (AsPC-1 [17]): > 10000 nM; EC50 (PANC-1 [21]): 658 nM
12 | 4350 nM | > 10000 nM | 1680 nM | 4250 nM | – | CN1CCN(c2ccc3nc(-c4c(N)c5c(F)cccc5[nH]c4=O)[nH]c3c2)CC1 [Dovitinib] | 2720 nM | 2170 nM | 3430 nM | 3150 nM | 4250 nM | 3570 nM | 863 nM | 4540 nM | –
13 | 4740 nM | – | 4.67 nM | – | 78.9 nM | Cc1nc(Nc2ncc(C(=O)Nc3c(C)cccc3Cl)s2)cc(N2CCN(CCO)CC2)n1 [Dasatinib] | 37.1 nM | 48.5 nM | 8640 nM | 16.6 nM | 704 nM | 139 nM | 2600 nM | 580 nM | EC50 (AsPC-1 [17]): > 10000 nM; EC50 (PANC-1 [21]): 446 nM
14 | 4490 nM | 2570 nM | 3040 nM | 3070 nM | 1960 nM | CC1(C)CC=C(c2nc(C3CC(C)(C)OC(C)(C)C3)ccc2NC(=O)c2nc(C#N)c[nH]2)CC1 [Edicotinib] | 2160 nM | 2850 nM | 3250 nM | 2070 nM | 3970 nM | – | 2380 nM | 2070 nM | EC50 (HuP-T4 [15]): 1370 nM
15 | 403 nM | 1030 nM | 572 nM | 703 nM | – | Nc1cc(C(F)(F)F)c(-c2cc(N3CCOCC3)nc(N3CCOCC3)n2)cn1 [Buparlisib] | 638 nM | 752 nM | 493 nM | 724 nM | 663 nM | 1300 nM | 479 nM | 1130 nM | –
